The values that follow come from patent US10954503B2, “Antidotes for factor Xa inhibitors and methods of using the same” (Alexion Pharmaceuticals, Inc., priority 2007, dated 2021).

The conditions of series [1]: in vivo; cited from earlier work.
The subject of another series is aPTT of human plasma. The series is described as follows: aPTT clotting assay with MLA Electra 800 automatic coagulation timer. The format is biochemical.
The subject of a further series is thrombin generation. The series is described as follows: Thrombin generation assay in platelet poor or platelet rich plasma (RFU). Format: biochemical, human. Particulars: betrixaban 250 nM; all rfVIIa concentrations tested.

Structures are written as SMILES.

For `O=C(NC[C@H]1CN(c2ccc(N3CCOCC3=O)cc2)C(=O)O1)c1ccc(Cl)s1` [rivaroxaban], the reported therapeutic concentration entry in series [1] is given as “approximately 600 nM”.
With `COc1ccc(NC(=O)c2ccc(C(=N)N(C)C)cc2)c(C(=O)Nc2ccc(Cl)cn2)c1` [betrixaban, [2-({4-[(dimethylamino)iminomethyl]phenyl}carbonylamino)-5-methoxyphenyl]-N-(5-chloro(2-pyridyl))carboxamide], the “aPTT” value is 61.8 s in the series on aPTT of human plasma (300 nM Betrixaban alone) and 66.3 s in the series with aPTT of human plasma (400 nM Betrixaban alone). In the series with aPTT of human plasma (400 nM betrixaban), the “extension of aPTT” value is “more than two folds”. Further, the “inhibition of fXa by betrixaban in the presence of rfVIIa” value in the series with thrombin generation is “about 75%”.
